Data on 11 molecules can be found in patent US10100372B2, “Recombinant RSV reporter virus” (priority 2014, dated 2018).

Where two headings read alike, the source gives them in different places. Some results are limits rather than exact numbers.

In series [1] the test system is recRSV A2-L19F-ren. It is filed as cell-based. The note with it: GPAR-3710 added later than four hours post-infection; JMN3-003 added eight hours post-infection.
Series [2] addresses T1, RSV F protein (Human respiratory syncytial virus, UniProt P12568, E66K/H515N/I79M/K191R/N371Y/N80K/T101P/T357K/V557I).
T1 construct: expressed in transfected cells; host or cells: HEp-2 cells infected with recRSV A2-L19F-mKate2; F is expressed from the viral genome, not from a plasmid
It counts as cell-based.

Series [3] has as its system recRSV A2-L19F-renilla. Kind of series: microbe, parasite or virus in culture. It counts as cell-based. The note with it: human respiratory syncytial virus; 0.5 μM concentration counterscreens; read-out: RSV inhibition.
Series [4] has as its system recRSV-L19FD489E-fireSMASh. It counts as cell-based, Respiratory Syncytial Virus. The note with it: 10 μM; 96-well; BEAS-2B.
Series [5] has as its system recRSV A2-L19F. It is filed as cell-based. The following applies: increasing compound concentrations.
In series [6] the test system is recRSV A2-L19F. As to the kind of experiment: microbe, parasite or virus in culture. It counts as cell-based.
For series [7], the target named is T1, RSV F protein. It counts as cell-based. The following applies: plasmid-based reporter assay. In general terms: Reporter assays use an easily measured gene product as a stand-in for the process of interest.
In series [8] the test system is host cell metabolic activity. The following applies: sourced compound.
The test system of series [9] is RSV A2 strain. The following applies: cited from earlier work.
Series [10] has as its target RSV F protein (Human respiratory syncytial virus, UniProt P12568). The note with it: resistance sites in the RSV F protein; cited from earlier work.
Series [11] concerns recRSV A2-L19FD489E-fireSMASh. Kind of series: microbe, parasite or virus in culture. The following applies: human respiratory syncytial virus, BEAS-2B, read-out: EC50 RSV A2-L19FD489E-fireSMASh.
The subject of series [12] is recRSV A2-L19FD489E-fireSMASh. Kind of series: microbe, parasite or virus in culture. It counts as cell-based, Respiratory Syncytial Virus. The following applies: human respiratory syncytial virus, 384-well, four replicate screens, mean ± SD, BEAS-2B co-infection, read-out: % Inhibition (anti-RSV).
The nature of series [13]: in vitro. The note with it: human.
The subject of series [14] is recIAV WSN-NanoLuc. As to the kind of experiment: microbe, parasite or virus in culture. The note with it: Influenza A virus, BEAS-2B, read-out: EC50 IAV WSN-nanoLuc.
In series [15] the test system is recIAV WSN-NanoLuc. Kind of series: microbe, parasite or virus in culture. It is filed as cell-based, influenza virus IAV/WSN/33 (H1N1). The note with it: unidentified influenza virus, WSN, BEAS-2B, read-out: % Inhibition (anti-IAV).
Series [16] deals with recIAV WSN-NanoLuc. The note with it: for SI [CC50/EC50] IAV: SIIAV.
Series [17] concerns recRSV A2-L19F-renilla. Kind of series: microbe, parasite or virus in culture. It counts as cell-based. The note with it: human respiratory syncytial virus, BEAS-2B, read-out: EC50 RSV A2-L19F-renilla.
For series [18], the system named is recRSV A2-L19FD489E-fireSMASh. The following applies: SIRSV.
The subject of series [19] is recRSV-L19FD489E-fireSMASh. It is filed as cell-based.
Setting [20] is: active concentrations based on in vitro assays, when available RSV A2 strain.
The mark [21] stands for this setting: 95% confidence interval in parentheses, inactive = less than 50% reduction of mean reporter signal.

Chain of RSV F protein (Human respiratory syncytial virus, UniProt P12568) (P12568 137-574 limits assumed): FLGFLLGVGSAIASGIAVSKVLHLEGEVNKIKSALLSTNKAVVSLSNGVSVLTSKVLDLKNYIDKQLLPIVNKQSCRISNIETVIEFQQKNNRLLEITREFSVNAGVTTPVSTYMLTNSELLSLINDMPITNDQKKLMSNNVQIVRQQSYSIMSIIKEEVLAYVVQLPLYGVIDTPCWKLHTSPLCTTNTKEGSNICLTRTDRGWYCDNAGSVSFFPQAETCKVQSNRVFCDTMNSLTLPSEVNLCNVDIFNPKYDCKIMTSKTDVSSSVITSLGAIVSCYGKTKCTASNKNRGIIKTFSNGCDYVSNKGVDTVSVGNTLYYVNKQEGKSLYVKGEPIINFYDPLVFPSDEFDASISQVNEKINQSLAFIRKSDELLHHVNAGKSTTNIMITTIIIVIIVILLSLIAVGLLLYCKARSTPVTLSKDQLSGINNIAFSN
Chain of RSV F protein (Human respiratory syncytial virus, UniProt P12568) (P12568 26-109 partner limits assumed): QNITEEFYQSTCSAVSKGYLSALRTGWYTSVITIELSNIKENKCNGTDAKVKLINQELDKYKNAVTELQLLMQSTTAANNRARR
T1 sequence (P12568 137-574, looked up, stated change not applied): as the sequence (P12568 137-574 limits assumed) above
T1 sequence (P12568 26-109, looked up, stated change not applied): as the sequence (P12568 26-109 partner limits assumed) above

By inhibition is commonly meant the relative decrease from the control value, in per cent. By EC50 is commonly meant the concentration needed to bring the measured effect to its halfway point. With `Cc1ccc(-n2c(SCC(=O)N/N=C/c3c4ccccc4cc4ccccc34)nnc2-c2ccccc2)cc1` [GPAR-3710], in [1], the “antiviral activity in time-of-addition study” value is on record as “essentially all antiviral activity was lost”. Moreover, the “adaptation period until robust resistance (growth in 30 μM compound)” value in series [2] (gradual adaptation to increasing compound concentrations) is ≤ 30 days. The reported resistance sites result in series [2] (resistance sites in the RSV F protein, identified through viral adaptation) was “FT400A FD401E FD486E FF488I FF488S FD489E”. For the same molecule, the inhibition at 0.5 µM in [3] was > 90%. Besides, in series [4], the “hit status in co-infection validation assay with pan-resistant RSV-FD489E” value is recorded as “did not emerge as hits”. Moreover, the RSV entry rate entry in series [5] is recorded as “significant, dose-dependent reduction”. In addition, the “active concentrations against different RSV strains” value in [6] (dose-dependent inhibition of different RSV strains) is recorded as “nano- to low micromolar range”. The molecule also had an EC50 in series [6] (human respiratory syncytial virus, active concentration based on in vitro assays, RSV entry inhibitor) of 130 nM. Moreover, the “RSV F protein-mediated membrane fusion activity” value in series [7] is “specifically and potently inhibited”. The cytotoxicity result in [8] was “low cytotoxicity”.
Regarding `Cc1ccc(O)c(Cn2c(NC3CCN(CCN)CC3)nc3c(C)cccc32)n1` [R170591], the concentration for a half-maximal effect (EC50) in series [9] (setting [20]) was 2 nM. Besides, in series [10], the reported resistance sites entry is “FF488I FF488L FD489Y”.
On to `Cc1nnnn1/N=C/c1ccc(O)c(C(c2ccc(O)cc2)c2cc(/C=N/n3nnnc3C)ccc2O)c1` [VP-14637], for which the EC50 in series [9] (setting [20]) was 1.4 nM. Moreover, in series [10], the reported resistance sites result is given as “FT400A FF488Y”.
As to `CC(C)[C@]12O[C@H]1[C@@H]1O[C@]13[C@]1(O[C@H]1C[C@H]1C4=C(CC[C@@]13C)C(=O)OC4)[C@@H]2O` [Triptolide], the values for the EC50 in series [11], in [14] and in series [17] (setting [21]) were 400 nM, 150 nM and 600 nM, respectively. The inhibition at 5 µM in series [12] was 1.5 ± 21%; in [15], 103 ± 1.2%. This molecule registered a CC50 in series [13] of 0.3 µM. Besides, the “SI (CC50/EC50) value at dose-response testing” value in series [16] (virus not given) is “below two”.
Regarding `O=c1n(Cc2nc3ccccc3n2CCCCO)c2cnccc2n1C1CC1` [BMS-433771], in series [9], the EC50 was 10 nM. Also, the reported resistance sites result in [10] is recorded as “FF140I FV144A FD392G FK394R FD489Y”.
On to `Nc1ccn([C@@H]2O[C@H](CO)[C@@H](O)C2(F)F)c(=O)n1` [Gemcitabine], for which the figures for the concentration giving a half-maximal response (EC50) in [11], in series [14] and in [17] (setting [21]) were 90 nM, 100 nM and 50 nM, respectively. The CC50 in [13] was > 10 µM. Further, the “SI [CC50/EC50] RSV” value in series [18] was “SIRSV >111”. For the same molecule, in series [16], the “SI [CC50/EC50] IAV” value is “SIIAV >100”.
As to `Nc1nc(N)c2nc(CNc3ccc(C(=O)N[C@@H](CCC(=O)O)C(=O)O)cc3)cnc2n1` [Aminopterin], the EC50 in series [11] turned out to be 70 nM; in series [14], 90 nM; in series [17], 50 nM. In series [13], this molecule yielded a CC50 of 10 µM. In addition, the “SI [CC50/EC50] RSV” value in series [18] is on record as “SIRSV 143”. Also, the “SI [CC50/EC50] IAV” value in [16] is recorded as “SIIAV 111”.
With `C=C[C@@H]1C[C@]1(NC(=O)[C@@H]1C[C@@H](Oc2ncc(OC)c3ccc(Cl)cc23)CN1C(=O)[C@@H](NC(=O)OC(C)(C)C)C(C)(C)C)C(=O)NS(=O)(=O)C1CC1` [ASV, asunaprevir], the “effect on progeny virus titers” value in series [19] (3 μM ASV) was “no effect”. For the same molecule, in series [19] (growth in the presence of 3 μM ASV), the “reduction of firefly luciferase activity” value was “approximately 90%”.
Regarding `Cc1ccc(CCCO)c(NCc2ccc3nc(NCCCN4CCOCC4)n(Cc4nc(C)ccc4O)c3c2)c1` [TMC353121], the concentration giving a half-maximal response (EC50) in series [9] is 0.13 nM. The reported resistance sites result in series [10] is listed as “FK394R FS398L FD486N”.
As for `Cc1ccc(O)c(Cn2c(NC3CCN(CCN)CC3)nc3c(C)cccc32)n1` [JNJ2408068], the concentration for a half-maximal effect (EC50) in series [9] (setting [20]) was 2.1 nM. In addition, the reported resistance sites entry in [10] was “FK399I FD486N FE487D”.
`COc1ccc(-n2c(SC(C)C(=O)Nc3ccc(C)cc3Cl)nc3ccccc32)cc1` (stereo not drawn) [JMN3-003]: the “antiviral activity in time-of-addition study” value in [1] was “remained potently inhibitory”.
